SMILES strings stand for the structures. Where a name gives a salt, the structure may show the parent alone.

Take `O=C(Nc1cccc2c1C(=O)c1c-2n[nH]c1-c1ccc(N2CCC(N3CCCC3)CC2)cc1)NN1CCOCC1` (as salt: TFA) [Example CCLI, 3-(4-(4-pyrrolidinopiperidino)phenyl)-5-(morpholinocarbamoylamino)indeno[1,2-c]pyrazol-4-one]: the melting point turned out to be 247 °C.
With `Cc1ccc(-c2[nH]nc3c2C(=O)c2c(NC(N)=O)cccc2-3)s1` [Example XCVIII, 3-(5-methyl-2-thienyl)-5-(carbamoylamino)indeno[1,2-c]pyrazol-4-one] the figure was over 280 °C; with `COc1ccc(-c2[nH]nc3c2C(=O)c2c(NC(=O)Cc4ccc(OC)c(OC)c4)cccc2-3)cc1` [Example XIII, 3-(4-methoxyphenyl)-5-((3,4-dimethoxyphenyl)acetamido)indeno[1,2-c]pyrazol-4-one], over 300 °C.
The result for `CCNCC(=O)Nc1cccc2c1C(=O)c1c-2n[nH]c1-c1ccc(OC)cc1` [Example XXXI, 3-(4-methoxyphenyl)-5-(ethylaminoacetamido)indeno[1,2-c]pyrazol-4-one] reads 250 °C.
`CN(C)CC(=O)Nc1cccc2c1C(=O)c1c-2n[nH]c1-c1ccc(N2CCNCC2)cc1` (as salt: TFA) [Example CCXIV, 3-(4-piperazinophenyl)-5-((N,N-dimethylamino)acetamido)indeno[1,2-c]pyrazol-4-one] displayed a melting point of 243 °C.
Take `CC(=O)N(C)[C@H]1CCN(C(=O)c2ccc(-c3[nH]nc4c3C(=O)c3c(NC(=O)NN5CCOCC5)cccc3-4)s2)C1` (as salt: TFA) [Example CLXXVIII, 3-(5-(3(S)-(N-methylacetamido)pyrrolidinocarbonyl)-2-thienyl)-5-(morpholinocarbamoylamino)indeno[1,2-c]pyrazol-4-one]: the melting point was over 300 °C.
The result for `O=C(Nc1cccc2c1C(=O)c1c-2n[nH]c1-c1ccc(N2CCNCC2)cc1)NN1CCC[C@H]1CO` (as salt: TFA) [Example CCXXXIV, 3-(4-piperazinophenyl)-5-((2(S)-(hydroxymethyl)pyrrolidino)carbamoylamino)indeno[1,2-c]pyrazol-4-one] reads 190 °C; that for `CC(C)c1[nH]nc2c1C(=O)c1c(NC(=O)CN3CCC(CN)CC3)cccc1-2` [Example CXVIII, 3-(i-propyl)-5-(4-(aminomethyl)piperidinoacetamido)indeno [1,2-c]pyrazol-4-one], 218 °C; that for `CN1CCN(NC(=O)Nc2cccc3c2C(=O)c2c-3n[nH]c2-c2ccc(N3CCN(C)CC3)cc2)CC1` (as salt: TFA) [Example CCXXIV, 3-(4-(4-methylpiperazino)phenyl)-5-((4-methylpiperazino)carbamoylamino)indeno[1,2-c]pyrazol-4-one], 293 °C.
The molecule `O=C(Nc1cccc2c1C(=O)c1c-2n[nH]c1-c1ccc(C(=O)NN2CCCC2)s1)NN1CCOCC1` (as salt: TFA) [Example CXLVI, 3-(5-pyrrolidinoaminocarbonyl-2-thienyl)-5-(morpholinocarbamoylamino)indeno [1,2-c]pyrazol-4-one] registered a melting point of 213 °C.
Consider `CC(=O)Nc1cccc2c1C(=O)c1c-2n[nH]c1-c1sccc1C` [Example XC, 3-(3-methyl-2-thienyl)-5-(acetamido)indeno[1,2-c]pyrazol-4-one], for which the melting point is 275 °C.
The result for `O=C(Nc1cccc2c1C(=O)c1c-2n[nH]c1-c1ccc(C(=O)N2CCNCC2)s1)NN1CCOCC1` (as salt: TFA) [Example CXLIX, 3-(5-piperazinocarbonyl-2-thienyl)-5-(morpholinocarbamoylamino)indeno [1,2-c]pyrazol-4-one] reads 241 °C; that for `NC(=O)Nc1cccc2c1C(=O)c1c-2n[nH]c1-c1csc(Cl)c1` [Example CI, 3-(5-chloro-3-thienyl)-5-(carbamoylamino)indeno[1,2-c]pyrazol-4-one], over 300 °C; that for `CN1CCN(NC(=O)Nc2cccc3c2C(=O)c2c-3n[nH]c2-c2ccc(N(C)C)cc2)CC1` [Example LXXXV, 3-(4-(N,N-dimethylamino)phenyl)-5-(4-methylpiperazinocarbamoylamino)indeno[1,2-c]pyrazol-4-one], over 300 °C.
The result for `NC(=O)N1CCC(c2[nH]nc3c2C(=O)c2c(NC(=O)NN4CCOCC4)cccc2-3)CC1` (as salt: TFA) [Example CCLXVI, 3-(1-carbamoylpiperidin-4-yl)-5-(morpholinocarbamoylamino)indeno[1,2-c]pyrazol-4-one] reads 258 °C.
`O=C(Nc1cccc2c1C(=O)c1c-2n[nH]c1[C@H]1CC[C@H](C(=O)N2CCNCC2)CC1)NN1CCOCC1` (as salt: TFA) [Example CCCIII, 3-(trans-4-(piperazinocarbonyl)cyclohexyl)-5-(morpholinocarbamoylamino)indeno[1,2-c]pyrazol-4-one]: the melting point came to 248 °C.
With `COc1ccc(-c2[nH]nc3c2C(=O)c2c(NC(=O)Cc4ccc(NC(C)=O)cc4)cccc2-3)cc1` [Example XXXVI, 3-(4-methoxyphenyl)-5-((4-acetamidophenyl)acetamido)indeno[1,2-c]pyrazol-4-one] the figure was 268 °C; with `CC(C)c1[nH]nc2c1C(=O)c1c(NC(=O)CN3CCC(C(N)=O)CC3)cccc1-2` [Example CXV, 3-(i-propyl)-5-((4-carbamoylpiperidino)acetamido)indeno [1,2-c]pyrazol-4-one], 224 °C; with `CC1CCCC(C)N1NC(=O)Nc1cccc2c1C(=O)c1c-2n[nH]c1-c1ccc(N2CCNCC2)cc1` (stereo not drawn) (as salt: TFA) [Example CCXXVII, 3-(4-piperazinophenyl)-5-((2,6-dimethylpiperidino)carbamoylamino)indeno[1,2-c]pyrazol-4-one], 270 °C.
As for `CCOC(=O)c1ccc(-c2[nH]nc3c2C(=O)c2c(NC(N)=O)cccc2-3)s1` [Example XCIX, 3-(5-carboethoxy-2-thienyl)-5-(carbamoylamino)indeno[1,2-c]pyrazol-4-one], the melting point is over 280 °C.
The result for `O=C(Nc1cccc2c1C(=O)c1c-2n[nH]c1-c1ccc(C(=O)N2CCC(N3CCCC3)CC2)s1)NN1CCOCC1` (as salt: TFA) [Example CLIX, 3-(5-(4-pyrrolidinopiperidinocarbonyl)-2-thienyl)-5-(morpholinocarbamoylamino)indeno[1,2-c]pyrazol-4-one] reads 228 °C; that for `CC(C)(C)OC(=O)N1CCN(c2ccc(-c3[nH]nc4c3C(=O)c3c(NC(=O)NN5CCOCC5)cccc3-4)cc2)CC1` [Example CCX, 3-(4-(4-t-butoxycarbonylpiperazino)phenyl)-5-(morpholinocarbamoylamino)indeno[1,2-c]pyrazol-4-one], 242 °C.
With `O=C(Nc1cccc2c1C(=O)c1c-2n[nH]c1-c1ccc(C(=O)NC2CN3CCC2CC3)s1)NN1CCOCC1` (stereo not drawn) (as salt: TFA) the figure was 245 °C; with `CN1CCN(NC(=O)Nc2cccc3c2C(=O)c2c-3n[nH]c2-c2ccc(C(=O)O)s2)CC1` [Example CXXIII, 3-(5-carboxyl-2-thienyl)-5-((4-methylpiperazino)carbamoylamino)indeno [1,2-c]pyrazol-4-one], 270 °C.

For the origin of these results see patent publication US6407103B2, “Indeno [1,2-c] pyrazol-4-ones and their uses” (Bristol-Myers Squibb Pharma Company, priority 1998, dated 2002).
